Measured values reported in patent US6878388B1, “Vanadium compounds for treating proliferative cell disorders” (Parker Hughes Institute, priority 2000, dated 2005).

Columns and labels:
[1] = test system: U373 glioblastoma cell spheroids; assay: Spheroid migration assay; format: cell-based, human; settings: for inhibition of tumor cell migration from the spheroids / migration distance: U373 spheroids; for migration distance: 48 h (DMSO control 745±29 μm)
Description: Dissociation and migration are the initial steps for infiltration of tumor cells into the surrounding tissue (Pilkington et al., Anticancer Res., 17: 4107-4109, 1997; Giese et al., Neurosurgery, 39: 235-252, 1996; Chintala et al., Front Biosci, 1: d324-39, 1996). Migration of brain tumor cells was monitored using U373 glioblastoma cell spheroids, as described previously (Narla et al., Clin Cancer Res, 4:2463-2471, 1998). Glioblastoma cell spheroids were cultured in 100 mm^2 tissue culture plates precoated with 0.75% agar prepared in MEM supplemented with 10% fetal bovine serum. The cells (5×10^6 cells) were suspended in the medium, seeded onto agar-coated plates and cultured for 5-7 days at 37° C. Spheroids with a diameter of 200-400 μm were selected for use in further experiments. For the migration experiments, the selected spheroids were incubated for 2 hours at 37° C. in serum-free medium containing [VO(SO4)(Me2-Phen)2] in concentrations ranging from 1 μM to 25 μM. The [VO(SO4)(Me2-Phen)2]-treated and vehicle control (DMSO, 0.1%) spheroids were transferred onto fibronectin-coated coverslips (Becton Dickinson, Bedford, Mass.) and placed in 6-well plates containing the same concentrations of [VO(SO4)(Me2-Phen)2] or DMSO in serum-free medium. Spheroids were then kept in a humidified 5CO2 incubator at 37° C. for 48 hours. A total of 4-6 spheroids were used for each concentration. Following the 48 hours incubation period, the spheroids were fixed and stained with Hema-3 solutions and mounted onto glass slides. The distance of tumor cell migration from the spheroid was measured using an ocular micrometer and a transmitted light microscope.
Spheroids measuring 259.2±41.9 μm in diameter were incubated with [VO(SO4)(Me2-Phen)2] or DMSO on fibronectin-coated coverslips. The U373 gioblastoma cells incubated with DMSO rapidly migrated to a distance 745±29 μm away from the spheroid.

[2] = test system: MDA-MB-231 breast cancer cells; assay: In situ detection of apoptosis (TdT-mediated dUTP nick-end labeling), MDA-MB-231; format: cell-based, human; settings: MDA-MB-231 cells, dUTP-FITC labeling; read-out: apoptotic EC50
Description: Apoptosis was detected using an in situ cell death detection kit (Boehringer Mannheim Corp., Indianapolis, Ind.) as described previously (Albini et al., J. Cell Biol., 105: 1867-1872, 1987; Huang et al., J Biol Chem., 272: 2927-2935, 1997). Cells were incubated with [VO(SO4)(Me2-Phen)2] for 48 hours at 37° C., fixed, permeabilized, incubated with the reaction mixture containing terminal deoxynucleotidyl transferase (TdT) and fluorescein isothiocyanate (FITC)-conjugated dUTP and counterstained with propidium iodide. Cells were transferred to slides and viewed with confocal laser scanning microscope (Bio-Rad MRC 1024) mounted on a Nikon Eclipse E800 series upright microscope as previously reported (Narla et al., Supra).
Administration of [VO(SO4)(Me2-Phen)2] to cells induced apoptotic or programmed cell death as determined using the TdT-mediated dUTP nick-end labeling of exposed 3′-OH termini of DNA with dUTP-FITC.

## Cc1ccnc2c1ccc1c(C)ccnc12.Cc1ccnc2c1ccc1c(C)ccnc12.O=S(=O)([O-])[O-].[O]=[V+2] [[VO(SO4)(Me2-Phen)2], bis(4,7-dimethyl-1,10-phenanthroline) sulfatooxovanadium (IV)]
[1]; 1 μM, 48 h
  inhibition of tumor cell migration from the spheroids: 58.3±7.3%
[1]; 1 μM
  migration distance: 311.1±54.4 μm
[1]; 2 μM, 48 h
  inhibition of tumor cell migration from the spheroids: 71.2±3.4%
[1]; 2 μM
  migration distance: 214.9±25.7 μm
[1]; U373 spheroids on fibronectin-coated coverslips, 48 h, read-out: IC50 inhibition of tumor cell migration
  IC50: 1.4 ± 0.2 µM
[2]
  EC50: 2.1 ± 0.4 µM
